For one data set, the system named is BALB/c mice. The conditions noted are these: mouse, in vivo, sc.
Data set [1] concerns the target T1, protease K (Parengyodontium album, UniProt P06873). Description: in vitro. The conditions noted are these: isolated enzyme.
Data set [2] addresses T1, protease K.

No end group written: not given here.

T1 sequence (P06873 106-384 limits assumed): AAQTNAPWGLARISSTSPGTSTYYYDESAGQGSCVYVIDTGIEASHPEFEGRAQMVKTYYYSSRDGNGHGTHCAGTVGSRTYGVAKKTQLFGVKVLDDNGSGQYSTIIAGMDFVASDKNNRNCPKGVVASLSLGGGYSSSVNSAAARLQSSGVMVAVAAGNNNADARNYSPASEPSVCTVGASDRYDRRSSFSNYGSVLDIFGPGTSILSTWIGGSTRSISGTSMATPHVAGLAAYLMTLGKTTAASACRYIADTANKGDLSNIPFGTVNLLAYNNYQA

For SEFMRNALEEMLRRA-NH2 [RSIpep], in the data set on BALB/c mice, the “pathological section analysis of heart, liver, spleen, lung, kidney” value is on record as “no discernible pathological alterations”. At protease K [1], the half-life is 37.2 ± 1.8 min. Also, the “t1/2 with protease K” value on protease K [2] was “less than 1 h”.

By half-life is commonly meant the time in which the quantity being followed falls by half. Low values mean rapid decline, high ones slow decline.
